Data published in PMC11872507, “Lasso peptides sviceucin and siamycin I exhibit anti-virulence activity and restore vancomycin effectiveness in vancomycin-resistant pathogens” (iScience, 2025).
≈ marks a conversion by molar mass, not a printed value.

Key:
E. faecium 1 230 933 = assay: microbe, parasite or virus in culture; format: cell-based, Enterococcus faecium; details: Enterococcus faecium, 1230933, read-out: Vancomycin MIC
[1] = tested on: V583 ΔvanSBmalT::vanR^D53E; assay: Vancomycin MIC, microdilution; format: cell-based; details: Enterococcus faecalis; vancomycin alone (control); phosphomimetic VanR^D53E
Protocol: (§1) The MIC of vancomycin was determined by the microdilution method described in the guidelines of the European Committee on Antimicrobial Susceptibility Testing (EUCAST 2024, v14.0 Breakpoint Tables).[58] For enterococci, GM17 medium was used instead of CAMH medium since enterococci cannot degrade starch, the main carbohydrate of MH medium. 2-fold serial dilutions of the tested antibiotic were performed to obtain concentrations ranging from 0.5 to 512 μg/mL. LP were then added to the wells at the desired concentration. The medium was inoculated with a final inoculum of 5 × 10^5 CFU/mL. The MIC is the lowest concentration that prevents visible in vitro growth.

VanS-VanRB strain = assay: Vancomycin MIC, microdilution; format: cell-based; details: Enterococcus faecalis; vanSB replaced by vanS in V583
Protocol: (§2) To further support this, we investigated the origin of the different activity spectra of sviceucin and siamycin I between VanA- and VanB-type vancomycin resistance. We first replaced vanSB by vanS in the VanB-type strain E. faecalis V583. VanS-VanRB strain was sensitive to vancomycin (MIC = 2 μg/mL), probably because of an impaired signal transduction between VanS and VanRB. To bypass this issue, we replaced the vanRBSB-PvanYB fragment by the vanRS-PvanH fragment from a VanA-type operon, resulting in a VanA-type transduction system fused to VanB-type resistance genes.

V583 ΔvanB::vanA = assay: Vancomycin MIC, microdilution; format: cell-based; details: Enterococcus faecalis; vancomycin alone (control)
Protocol: as §2

[2] = tested on: V583 ΔvanSB-vanRB::vanS-vanR; assay: Vancomycin MIC, microdilution; format: cell-based; details: Enterococcus faecalis; vancomycin alone (control); VanA-type transduction system, VanB-type resistance genes
Protocol: as §2

V583 vanSB^D398E = assay: Vancomycin MIC, microdilution; format: cell-based; details: Enterococcus faecalis; vancomycin alone (control)
V583 vanSB^S402I = assay: Vancomycin MIC, microdilution; format: cell-based; details: Enterococcus faecalis; vancomycin alone (control)
E. faecalis JH2-2 08048 = assay: microbe, parasite or virus in culture; format: cell-based, Enterococcus faecalis; details: Enterococcus faecalis, JH2208048, read-out: Vancomycin MIC
Protocol: as §1

S. aureus 16038 (VISA) = assay: microbe, parasite or virus in culture; format: cell-based, Staphylococcus aureus; details: Staphylococcus aureus, VISA, read-out: Vancomycin MIC
S. aureus T-SAR12 VRSA.A = assay: microbe, parasite or virus in culture; format: cell-based, Staphylococcus aureus; details: Staphylococcus aureus, VRSA, read-out: Vancomycin MIC
Protocol: as §1

S. aureus T-SAR12 VRSA.B = assay: microbe, parasite or virus in culture; format: cell-based, Staphylococcus aureus; details: Staphylococcus aureus, VRSA, read-out: Vancomycin MIC
Protocol: as §1

Svic1 = assay: Quantification of D-Ala-D-Lac muropeptides by LCMS; format: cell-based, Enterococcus faecalis; details: vancomycin alone, 2 μg/mL; means of at least two biological replicates
Protocol: (§3) Extraction of muropeptides was performed as previously described[64] with modifications. Bacteria were cultured overnight in GM17 medium supplemented with 2 μg/mL of vancomycin (Merck, USA), 10 μM of sviceucin, or 2 μM of siamycin I. Bacteria were pelleted by centrifugation for 5 min at 10000 rpm and then resuspended in 1 mL of 0.1 M Tris-HCl (pH 6.8), 0.25% SDS. Samples were boiled for 20 min in a heating block (Biolock Scientific, USA) and then centrifuged for 5 min at 10000 rpm. The pellets were washed twice with 1 mL of cold ultrapure water before sonication for 30 min (Branson 1800 Cleaner, USA). 500 μL of DNase 15 μg/mL and RNase 60 μg/mL (Sigma-Aldrich, USA) were added to each sample then incubated at 37°C for 60 min. […] Pellets were resuspended in 12,5 mM sodium phosphate buffer (pH 5.5), then muropeptides concentration was determined and standardized to an OD578 of 3. […]
(§4) LCMS analysis was performed on an ultra-high performance LC system (Ultimate 3000 RSLC, Thermo Scientific, USA) coupled to a high-resolution electrospray ionization-quadrupole-time of flight mass spectrometer (MaXis II ETD, Bruker Daltonics, USA). […] Mass data were analyzed by Data Analysis 4.4 (Bruker Daltonics, USA). For quantification, the m/z corresponding to singly- and doubly-charged species of monomer, as well as doubly- and triply-charged species of dimers of muropeptides were manually searched. […]

E. faecalis V583 [3] = assay: Quantification of D-Ala-D-Lac muropeptides by LCMS; format: cell-based, Enterococcus faecalis; details: vancomycin alone, 2 μg/mL; means of at least two biological replicates
Protocol: as §3, §4

E. faecium 1 231 410 = assay: microbe, parasite or virus in culture; format: cell-based, Enterococcus faecium; details: Enterococcus faecium, 1231410, read-out: Vancomycin MIC
E. faecalis V583 [4] = assay: Checkerboard broth microdilution; format: cell-based; details: Enterococcus faecalis, control, vancomycin alone
Excerpt: Since sviceucin and siamycin I inhibit signal transduction of the FsrAC TCS in vivo, we next wondered if the lasso peptides would also target other TCSs. In E. faecalis, the VanRS TCS regulates resistance to vancomycin, an antibiotic of clinical importance. The minimum inhibitory concentrations (MICs) of this antibiotic in combination with the lasso peptides were thus determined for clinically relevant Enterococcus and S. aureus strains from our in-house collection. The chosen concentrations of the peptides (2 μM of siamycin I and 10 μM of sviceucin) are the lowest subinhibitory concentrations that allow the maximum synergy with vancomycin, as determined by the checkerboard method on the E. faecalis V583 strain (Table S1).

CN[C@H](CC(C)C)C(=O)N[C@H]1C(=O)N[C@@H](CC(N)=O)C(=O)N[C@H]2C(=O)N[C@H]3C(=O)N[C@H](C(=O)N[C@H](C(=O)O)c4cc(O)cc(O)c4-c4cc3ccc4O)[C@H](O)c3ccc(c(Cl)c3)Oc3cc2cc(c3O[C@@H]2O[C@H](CO)[C@@H](O)[C@H](O)[C@H]2O[C@H]2C[C@](C)(N)[C@H](O)[C@H](C)O2)Oc2ccc(cc2Cl)[C@H]1O [Vancomycin]
MIC (E. faecium 1 230 933): 512 µg/mL (≈ 353 µM)
MIC [1]: 32 µg/mL (≈ 22.1 µM)
MIC (VanS-VanRB strain): 2 µg/mL (≈ 1.38 µM)
MIC (V583 ΔvanB::vanA): 32 µg/mL (≈ 22.1 µM)
MIC [2]: 32 µg/mL (≈ 22.1 µM)
MIC (V583 vanSB^D398E): 128 µg/mL (≈ 88.3 µM)
MIC (V583 vanSB^S402I): 128 µg/mL (≈ 88.3 µM)
MIC (E. faecalis JH2-2 08048): 64 µg/mL (≈ 44.2 µM)
MIC (S. aureus 16038 (VISA)): 4 µg/mL (≈ 2.76 µM)
MIC (S. aureus T-SAR12 VRSA.A): > 512 µg/mL
MIC (S. aureus T-SAR12 VRSA.B): 64 µg/mL (≈ 44.2 µM)
percentage of muropeptides D-Ala-D-Lac (Svic1): 62.0%
percentage of muropeptides D-Ala-D-Lac (E. faecalis V583 [3]): 48.3%
MIC (E. faecium 1 231 410): 128 µg/mL (≈ 88.3 µM)
MIC (E. faecalis V583 [4]): 32 µg/mL
